Source: publication PMC8350397, “GSK137, a potent small-molecule BCL6 inhibitor with in vivo activity, suppresses antibody responses in mice” (The Journal of Biological Chemistry, 2021)
Values after ≈ are worked out from the molar mass of the structure shown.

How the values were obtained:
[1] = molecular target: human serum albumin (HSA) (Homo sapiens, UniProt P02768); assay: Binding to human serum albumin; type: in vitro ADME
[2] = Pharmacokinetics in blood during the immunization study; type: in vivo; conditions: male, CD1, mouse, whole blood, po; for AUC: daily steady state, from simulated profiles; for Tmax: day 8; for Cmax: day 8, blood
Procedure: (§1) Male CD1 mice (30–40 g, 8–9 weeks of age) were randomized into study treatment groups, housed individually and allowed to acclimatize under standard laboratory conditions for a minimum of 5 days prior to commencement of the study. Mice received food and water ad libitum. The experiment was performed in a certified dedicated in vivo experimental laboratory at the GlaxoSmithKline Medicines Research Centre, Stevenage, United Kingdom. The four treatment groups were (1) unimmunized and untreated (naive group) (n = 4); (2) intraperitoneal vehicle (n = 13), (3) GSK137 15 mg/kg (n = 14), and (4) GSK137 30 mg/kg (n = 14). Groups (2) to (4) were given intraperitoneal immunization with TNP–KLH (100 μg) on day 0, vehicle was 1% methylcellulose in water + 0.1% sodium lauryl sulphate, and compound or vehicle was given to groups (2) to (4) by oral gavage three times per day from day −1 to day +12. Blood samples were collected by tail vein for measurement of compound, IgM and IgG levels on days 0, 5, 8, and 12 ahead of immunization/first daily dose. On day 8, blood samples were also taken (n = 7) at 0.5, 1.5, 3, 5, or 7 h after first daily dose. On day 12, spleens were collected, weighed, and placed into Dulbecco's modified Eagle's medium on wet ice for analysis by flow cytometry.
Mouse blood/water (50/50) samples were analyzed for GSK137 using an analytical method based on protein precipitation, followed by HPLC/MS–MS analysis. The lower limit of quantification for GSK137 was 1.2 ng/ml with a higher limit of quantification of 3000 ng/ml. A two-compartment PK model was used to describe the measured composite mean steady-state oral concentration–time profiles. A three times per day dose simulation was performed using the two-compartment PK model parameters generated to simulate the repeat dose concentration–time profile. All modelings were conducted in Phoenix64 (WinNonLin) version 8.1 (Pharsight).

[3] = test system: splenic GC B cells and Tfh cells; assay: TNP-KLH immunization model, flow cytometry of spleen cells; type: in vivo, mouse; conditions: for reduction of mean absolute number of Tfh cells per spleen vs vehicle: day 12, not statistically significant
Procedure: as §1
For cell measurements, spleens were passed through a […] cell strainer, red blood cells were lysed, and cells were resuspended in medium, counted, and 1 × 10^6 cells plated for staining. Cells were washed in PBS and resuspended in 100 μl viability dye (diluted 1:1000 in PBS) for 15 min at room temperature. About 100 μl cell-staining buffer (CSB; BioLegend; catalog no. 420201) was added to each well before centrifugation and removal of supernatants, and cell pellets were resuspended in 100 μl relevant cocktail of antibodies (Table S2) for surface staining and incubated for 30 min at 4 °C. Cells were then washed in CSB and resuspended in 200 μl of FoxP3 fixation and permeabilization buffer for 30 min for staining of intracellular markers for 30 min. Cells were washed in PermWash buffer and resuspended in CSB (250 μl) before acquisition of a Cytek Aurora spectral cytometer (Cytek). Gating was carried out as shown (Figs. S1 and S2), and data were analyzed on FlowJo 10 (Becton Dickinson). Cell frequency was used to calculate an absolute cell number per tissue from the total live cell counts from whole homogenized spleen. Data were normalized against background GC and Tfh quantified in naive mice prior to performing percent inhibition calculations.
Single cell suspensions were generated by passing spleens through a 40 µM cell strainer into medium (RPMI 1640 supplemented with 2% fetal calf serum, 1% penicillin / streptomycin, 1% L-glutamine). Following centrifugation (400 g, 5 minutes, 4 °C) and removal of supernatants, red blood cells were lysed by incubation in 1 mL lysis buffer for 1 minute at room temperature. Cells were resuspended in medium, counted on a Nucleocounter NC3000 (Chemometec, Lillerød, Denmark) and 1x10^6 cells plated into 96-well polypropylene plates for staining. Cells were washed in 200 µL PBS and resuspended in 100 µL viability dye (diluted 1:1000 in PBS) for 15 minutes at room temperature. 100 µL cell staining buffer (CSB) (BioLegend, San Diego, CA, USA, #420201) was added to each well before centrifugation and removal of supernatants. Cell pellets were resuspended in 100 µL relevant cocktail of antibodies (see Tables S2 and S3) for surface staining and incubated for 30 minutes at 4 °C. Cells were washed in CSB and resuspended in 200 uL of FoxP3 fixation and permeabilisation buffer for 30 minutes in the dark at room temperature, washed and stained for intracellular markers for 30 minutes at room temperature. Cells were washed in Permwash and resuspended in CSB (250 µL) before acquisition on a Cytek Aurora spectral cytometer (Cytek, Fremont, CA, USA). […]

[4] = GSK in-house kinetic solubility assay (CAD); type: physicochemical; conditions: kinetic from dmso stock, charged aerosol detector

human serum albumin (HSA), sequence (P02768 25-609): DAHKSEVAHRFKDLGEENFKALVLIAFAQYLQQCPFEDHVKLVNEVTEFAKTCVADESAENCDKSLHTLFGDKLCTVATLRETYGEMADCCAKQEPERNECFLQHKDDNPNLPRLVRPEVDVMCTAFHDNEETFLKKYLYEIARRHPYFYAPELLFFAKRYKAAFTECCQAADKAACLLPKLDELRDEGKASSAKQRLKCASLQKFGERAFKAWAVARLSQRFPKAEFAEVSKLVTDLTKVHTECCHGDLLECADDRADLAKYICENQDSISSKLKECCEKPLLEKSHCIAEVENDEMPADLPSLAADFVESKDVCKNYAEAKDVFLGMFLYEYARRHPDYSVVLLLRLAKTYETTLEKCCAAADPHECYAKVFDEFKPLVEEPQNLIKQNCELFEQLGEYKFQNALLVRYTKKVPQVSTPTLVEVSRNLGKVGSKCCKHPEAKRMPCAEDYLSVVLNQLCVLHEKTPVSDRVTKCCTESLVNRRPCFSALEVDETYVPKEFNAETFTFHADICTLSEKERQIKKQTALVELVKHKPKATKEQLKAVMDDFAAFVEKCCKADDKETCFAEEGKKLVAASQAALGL

**Q.** What does the source list for `Cc1ncccc1[C@H]1C[C@@H](c2cccc3nc(N)ccc23)Nc2c(F)cnn21` [GSK137, 5-((5S,7R)-3-Fluoro-7-(2-methylpyridin-3-yl)-4,5,6,7-tetrahydropyrazolo[1,5-a]pyrimidin-5-yl)quinolin-2-amine]?
**A.** HSA binding [1]: 91%; AUC ([2]; 15 mg/kg orally TID): 3400 ng·h/mL; Tmax ([2]; 15 mg/kg orally TID): 30 min; Cmax ([2]; 15 mg/kg orally TID): 471 ± 226 ng/mL; AUC ([2]; 30 mg/kg orally TID): 6810 ng·h/mL; Tmax ([2]; 30 mg/kg orally TID): 30 min; Cmax ([2]; 30 mg/kg orally TID): 1340 ± 141 ng/mL; plasmablasts and plasma cells as a percentage of total viable cells vs vehicle ([3]; 15 mg/kg or 30 mg/kg, Fig. S6B): no statistically significant reductions; reduction of mean number of GC B cells per spleen vs vehicle ([3]; 15 mg/kg, day 12): 53%; reduction of mean absolute number of Tfh cells per spleen vs vehicle ([3]; 15 mg/kg): 39%; reduction of frequency of GC B cells within total splenic B cells vs vehicle ([3]; 15 mg/kg, day 12, p = 0.0058): 61%; reduction of mean frequency of Tfh cells as fraction of splenic CD4+ T cells vs vehicle ([3]; 15 mg/kg, day 12, p = 0.014): 48%; reduction of mean absolute number of Tfh cells per spleen vs vehicle ([3]; 30 mg/kg): 34%; reduction of frequency of GC B cells within total splenic B cells vs vehicle ([3]; 30 mg/kg, day 12, p = 0.0031): 72%; reduction of mean frequency of Tfh cells as fraction of splenic CD4+ T cells vs vehicle ([3]; 30 mg/kg, day 12, p = 0.0041): 50%; reduction of mean number of GC B cells per spleen vs vehicle ([3]; 30 mg/kg, day 12, p = 0.04): 67%; number of plasmablasts and plasma cells (CD19+/intCD138+) in spleen vs vehicle ([3]; 15 and 30 mg/kg, after immunization): no statistically significant difference; macrophage, dendritic cell and natural killer cell markers (CD11c, CD11b, CD161) vs vehicle ([3]; data not shown): no difference; mean total CD4+ T-cell numbers per spleen ([3]; significant at 30 mg/kg (p = 0.032), not at 15 mg/kg): return mean CD4^+ T-cell numbers to levels observed in naive mice; solubility [4]: 128 µg/mL (≈ 342 µM)
